These results are taken from ChEMBL document CHEMBL1128330, “Anti-human immunodeficiency virus and anti-hepatitis-B virus activities and toxicities of the enantiomers of 2'-deoxy-3'-oxa-4'-thiocytidine and their 5-fluoro analogues in vitro” (J Med Chem, 1995).

Conditions in all cases: Homo sapiens
For assay [1], the system named is CCRF-CEM. Briefly: Inhibitory concentration against HIV-1 infected CEM cell lines. It is filed as functional, cell-based.
Assay [2] relates to CCRF-CEM. Briefly: Cytotoxic concentration against HIV-1 infected CEM cell lines. It is filed as functional.
Assay [3] can be described thus: Drug concentration which inhibits 50% of growth of cord blood mononuclear cells (CBMCs). It is filed as functional.
The subject of assay [4] is H9. Briefly: Cytotoxic concentration against HIV-1 infected H9 cell lines. Format: functional.
Assay [5] deals with H9. Briefly: Inhibitory concentration against HIV-1 infected H9 cell lines. Format: functional, cell-based.
In assay [6] the test system is Jurkat. Briefly: Cytotoxic concentration against HIV-1 infected Jurkat cell lines. Format: functional.
Assay [7] has as its system MT4. Briefly: Cytotoxic concentration against HIV-1 infected MT-4 cell lines. Format: functional.
The subject of assay [8] is U-937. Briefly: Cytotoxic concentration against HIV-1 infected U937 cell lines. Format: functional.
Assay [9] relates to U-937. Nature of the assay: Inhibitory concentration against HIV-1 infected U937 cell lines. Format: functional, cell-based.
The subject of assay [10] is Jurkat. Briefly: Inhibitory concentration against HIV-1 infected Jurkat cell lines. It is filed as functional, cell-based.
The test system of assay [11] is MT4. Briefly: Inhibitory concentration against HIV-1 infected MT-4 cell lines. Format: functional, cell-based.

The structures appear in SMILES notation. pIC50: −log10 of the molar value. Some results are limits rather than exact numbers.

What is called pIC50 is the IC50 on a negative log10 scale, so that one unit is a factor of ten. A low value points to a high IC50. One may read the CC50 as the concentration giving 50% cytotoxicity. In the case of `Cc1cn([C@H]2C[C@H](N=[N+]=[N-])[C@@H](CO)O2)c(=O)[nH]c1=O` [ZIDOVUDINE], the pIC50 with CCRF-CEM [1] was 8.00; in the assay with H9 [5], 7.15; in the assay on U-937 [9], 7.40; in the assay with Jurkat [10], 8.00; in the assay with MT4 [11], 8.30. Further, the CC50 in the assay on CCRF-CEM [2] was 500 µM; in assay [3], 45 µM; with H9 [4], 200 µM; with Jurkat [6] it was greater than 500 µM; in the assay with MT4 [7], 110 µM; with U-937 [8], 110 µM.
